# According to patent US5708063A, “Photochromic compound” (Tokuyama Corporation, priority 1993, dated 1998):
# Columns and labels:
# Type in all cases: physicochemical
# [1] = Fatigue life of fulgide/fulgimide and chromene compound in polymerized methacrylate plate (Example 15); conditions: for T1/2 of fulgide or fulgimide compound: 0.05 part
# Protocol: (§1) […] The mixed solution was injected into a mold which was made of a glass plate and a gasket formed of an ethylene-vinyl acetate copolymer, and was heated to a temperature of 35° to 90° C. in an air oven over a period of 20 hours for polymerization. After the polymerization was over, the polymer was withdrawn from the glass plate of the mold.
# (§2) The resulting polymerized plate was irradiated with sunlight for 10 minutes. On this occasion, a color tone of said plate was visually observed. In this polymerized plate, the fulgide or fulgimide compound and the chromene compound were measured for fatigue life in the same manner as in Example 9. Further, a color tone of the polymerized plate was visually observed in T1/2 (hrs.) of the fulgide or fulgimide compound.
# [2] = Fatigue life of fulgide/fulgimide and chromene compound in polymerized plate with ultraviolet light stabilizer (Example 16)
# [3] = Visual color tone of polymerized plate under sunlight (Example 15); conditions: 0.05 part
# Protocol: as §1, §2
# [4] = Fatigue life of photochromic PMMA cast film with ultraviolet stabilizer, xenon fadeometer (Examples 11-14); conditions: PMMA film, UV stabilizer Cyasorb UV1084, 0.2 part
# Protocol: One hundred parts by weight of benzene, 10 parts by weight of poly(methyl methacrylate), 0.2 part […] The solution was cast on a slide glass (11.2×3.7 cm) to form a cast film having a thickness of 0.1 mm.
# The fatigue life of photochromic film was measured as in Example 9 by a xenon long-life fadeometer (FAL-25AX-HC made by Suga Testing Instrument Co., Ltd.).
# Example 11 was repeated except that the fulgimide compound obtained in Example 2 was used instead of fulgimide compound used in Example 11.
# Example 11 was repeated except that the fulgimide or fulgide compounds shown in Table 28 were used instead of the fulgimide compounds in Example 11, and Cyasorb UV1084 was used as the ultraviolet stabilizer.
# [5] = Photochromic PMMA cast film: initial coloration density, maximum absorption wavelength and fatigue life in xenon fadeometer (Example 9); conditions: PMMA cast film 0.1 mm; for λmax / Initial color density: xenon light; for Initial color density / T1/2: no stabilizer; for T1/2: time for color density to fall to half of initial value, xenon fadeometer;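 on Initial color density: initial color density is an absorbance value so the % unit is wrong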
# Text: The thickness of the cast film was adjusted to 0.1 mm.
# (§3) T1/2 is defined as the time required for the color density to decrease to half of its initial value when the film is exposed to the fadeometer.
# [6] = Durability of poly(allyl diglycol carbonate) lens impregnated with the compound in silicone oil, as in Example 9 (Example 10); set-up: Initial color density: unit not given here; conditions: silicone oil impregnation; for Initial color density: 1.0×10^-4 mole/g; for T1/2: xenon fadeometer
# Protocol: as §3
# The solution was impregnated in the surface of a lens composed of poly(allyl diglycol carbonate) at 200° C. for 1 hour. The concentration of the solution was adjusted to 1.0×10^-4 mole/g.
compound,measurement,setting,value
"7'-methoxyspiro(bicyclo[3.3.1]nonane-9,2'-(2H)benzo(f)-chromene) [Chromene compound 2]",T1/2 of chromene compound,"[1]; 0.03 part, with fulgide/fulgimide 2 (0.05 part)",210 h
same,T1/2 of chromene compound,"[1]; 0.03 part, with fulgide/fulgimide 21 (0.05 part)",170 h
same,T1/2 of chromene compound,"[1]; 0.03 part, with fulgide/fulgimide 36 (0.05 part)",190 h
same,T1/2 of chromene compound,"[1]; 0.03 part, with fulgide/fulgimide 45 (0.05 part)",175 h
same,T1/2 of chromene compound,"[1]; 0.03 part, with fulgide/fulgimide 54 (0.05 part)",165 h
same,T1/2 of chromene compound,"[1]; 0.04 part chromene 2, with fulgide/fulgimide 2/48 (0.025/0.025 part)",190 h
same,T1/2 of chromene compound,"[2]; 0.04 part, fulgimide 2 (0.05), Tiniuvin 765 (0.1)",340 h
same,T1/2 of chromene compound,"[2]; 0.04 part, fulgimide 2 (0.05), Tinuvin 765 (0.2)",350 h
same,T1/2 of chromene compound,"[2]; 0.04 part, fulgimide 2 (0.05), Tinuvin 765 (0.5)",400 h
same,T1/2 of chromene compound,"[2]; 0.04 part, fulgimide 2 (0.05), Tinuvin 765 (1.0)",480 h
same,T1/2 of chromene compound,"[2]; 0.04 part, fulgimide 2 (0.05), Tinuvin 765 (2.0)",500 h
same,T1/2 of chromene compound,"[2]; 0.04 part, fulgimide 2 (0.05), Tinuvin 765 (10.0)",520 h
same,T1/2 of chromene compound,"[2]; 0.04 part, fulgimide 2 (0.05), UV Chek AM105 (0.7)",440 h
same,T1/2 of chromene compound,"[2]; 0.05 part, fulgimide 2 (0.05), LA-63 (0.5)",480 h
same,T1/2 of chromene compound,"[2]; 0.05 part, fulgimide 48 (0.05), Cyasorb UV 1084 (0.6)",430 h
COC(=O)C(C)N1C(=O)C2=C(C3CC3(C)C)c3ccoc3C3(C4CCC3(Cl)CC4)C2C1=O (stereo not shown) [(12)],T1/2 of fulgide or fulgimide compound,[1]; with chromene 4 (0.08 part),184 h
same,Color tone in T0,[3]; with chromene 4 (0.08 part),gray
same,Color tone in T1/2,[3]; with chromene 4 (0.08 part),gray
same,T1/2,[4],320 h
same,λmax,[5],581 nm
same,Initial color density,[5],0.78%
same,T1/2,[5],77 h
CC(=O)CN1C(=O)C2=C(C3CC3C)c3cc(-c4ccccc4)sc3C3(C4CCC3CC4)C2C1=O (stereo not shown) [(10)],T1/2 of fulgide or fulgimide compound,[1]; with chromene 3 (0.08 part),190 h
same,Color tone in T0,[3]; with chromene 3 (0.08 part),green
same,Color tone in T1/2,[3]; with chromene 3 (0.08 part),bluish gray
same,λmax,[6],615 nm
same,Initial color density,[6],0.82
same,T1/2,[6],85 h
same,λmax,[5],610 nm
same,Initial color density,[5],0.83%
same,T1/2,[5],80 h
CCOC1CC1C1=C2C(=O)N(C(C#N)CC)C(=O)C2C2(c3sc(OC)c(C)c31)C1CC3CC(C1)CC2C3 (stereo not shown) [(36)],T1/2 of fulgide or fulgimide compound,[1]; with chromene 2 (0.03 part),206 h
same,Color tone in T0,[3]; with chromene 2 (0.03 part),gray
same,Color tone in T1/2,[3]; with chromene 2 (0.03 part),gray
same,λmax,[6],582 nm
same,Initial color density,[6],0.77
same,T1/2,[6],95 h
same,λmax,[5],576 nm
same,T1/2,[5],88 h
"C1=CC2(CC3CCC2C3)Oc2c1ccc1ccccc21 (stereo not shown) [Chromene compound 1, Spiro(norbornane-2,2'-(2H)benzo(h)-chromene)]",T1/2 of chromene compound,"[1]; 0.03 part, with fulgide/fulgimide 8 (0.05 part)",170 h
same,T1/2 of chromene compound,"[1]; 0.03 part, with fulgide/fulgimide 30 (0.05 part)",170 h
same,T1/2 of chromene compound,"[1]; 0.04 part chromene 1, with fulgide/fulgimide 2/48 (0.025/0.025 part)",190 h
same,T1/2 of chromene compound,"[1]; 0.04 part, with fulgide/fulgimide 48 (0.05 part)",148 h
same,T1/2 of chromene compound,"[2]; 0.03 part, fulgimide 2 (0.05), Irgastab 2002 (0.5)",480 h
same,T1/2 of chromene compound,"[2]; 0.04 part, fulgimide 48 (0.05), Spinuvex A-36 (0.6)",430 h
"CCCCCCCCOc1cccc2c3c(ccc12)C=CC(C)(C)O3 [Chromene compound 5, 2,2-dimethyl-7-octoxy[2H]benzo[h]chromene]",T1/2 of chromene compound,"[1]; 0.03 part, with fulgide/fulgimide 17 (0.05 part)",120 h
same,T1/2 of chromene compound,"[1]; 0.04 part, with fulgide/fulgimide 15 (0.05 part)",192 h
same,T1/2 of chromene compound,"[1]; 0.07 part, with fulgide/fulgimide 46 (0.05 part)",155 h
same,T1/2 of chromene compound,"[2]; 0.05 part, fulgimide 2 (0.05), Mark LA-87 (0.5)",450 h
same,T1/2 of chromene compound,"[2]; 0.05 part, fulgimide 48 (0.05), Tinuvin 622 (0.7)",430 h
CCCCC1CC1C1=C2C(=O)N(C(C)(C)C#N)C(=O)C2C2(c3c(OC)cc(OC)cc31)C1CCC2(CCCC)CC1 (stereo not shown) [(17)],T1/2 of fulgide or fulgimide compound,[1]; with chromene 5 (0.03 part),146 h
same,Color tone in T0,[3]; with chromene 5 (0.03 part),gray
same,Color tone in T1/2,[3]; with chromene 5 (0.03 part),gray
same,T1/2,[4],230 h
same,λmax,[5],568 nm
same,Initial color density,[5],0.58%
same,T1/2,[5],58 h
"CC1=CC2(Oc3ccc4ccccc4c31)C1CCCC2CCC1 (stereo not shown) [Chromene compound 3, 4'-methylspiro[bicyclo[3.3.1]nonane-9,2'-[2H]benzo[f]chromene]]",T1/2 of chromene compound,"[1]; 0.08 part, with fulgide/fulgimide 10 (0.05 part)",150 h
same,T1/2 of chromene compound,"[1]; 0.08 part, with fulgide/fulgimide 44 (0.05 part)",160 h
same,T1/2 of chromene compound,"[2]; 0.01 part, fulgimide 2 (0.05), Cyasorb 944 (0.5)",400 h
same,T1/2 of chromene compound,"[2]; 0.1 part, fulgimide 48 (0.05), Tinuvin 765 (0.7)",420 h
CCCC1CC1C1=C2C(=O)N(C(C)C(C)=O)C(=O)C2C2(c3oc(OC)cc31)C1CCCC2CCC1 (stereo not shown) [(30)],T1/2 of fulgide or fulgimide compound,[1]; with chromene 1 (0.03 part),186 h
same,Color tone in T0,[3]; with chromene 1 (0.03 part),gray
same,Color tone in T1/2,[3]; with chromene 1 (0.03 part),gray
same,λmax,[6],571 nm
same,Initial color density,[6],0.68
same,T1/2,[6],85 h
same,λmax,[5],569 nm
same,Initial color density,[5],0.73%
same,T1/2,[5],78 h
O=C1OC(=O)C2C1=C(C1CC1)c1c(sc3c1CCCC3)C21C2CCCC1CCC2 (stereo not shown) [(54)],T1/2 of fulgide or fulgimide compound,[1]; with chromene 2 (0.03 part),134 h
same,Color tone in T0,[3]; with chromene 2 (0.03 part),gray
same,Color tone in T1/2,[3]; with chromene 2 (0.03 part),brown
same,λmax,[6],573 nm
same,Initial color density,[6],0.99
same,T1/2,[6],54 h
same,λmax,[5],568 nm
same,Initial color density,[5],1.09%
same,T1/2,[5],52 h
NC1CC1C1=C2C(=O)N(COC(=O)Cc3cccc4ccccc34)C(=O)C2C2(c3c1ccn3-c1ccccc1)C1(O)CCC2(O)CC1 (stereo not shown) [(21)],T1/2 of fulgide or fulgimide compound,[1]; with chromene 2 (0.03 part),172 h
same,Color tone in T0,[3]; with chromene 2 (0.03 part),green
same,Color tone in T1/2,[3]; with chromene 2 (0.03 part),green
same,λmax,[5],613 nm
same,Initial color density,[5],0.78%
same,T1/2,[5],71 h
CNC(=O)CCC(=O)CCN1C(=O)C2=C(C3CC3SC)c3ccn(C)c3C3(C4CCC3(C)CC4)C2C1=O (stereo not shown) [(15)],T1/2 of fulgide or fulgimide compound,[1]; with chromene 5 (0.04 part),160 h
same,Color tone in T0,[3]; with chromene 5 (0.04 part),green
same,Color tone in T1/2,[3]; with chromene 5 (0.04 part),light gray
same,λmax,[5],613 nm
same,Initial color density,[5],0.69%
same,T1/2,[5],65 h
O=C(CN1C(=O)C2=C(C3CC3)c3c(sc4c3CCCC4)C3(C4CC5CC(C4)CC3C5)C2C1=O)NCCCl (stereo not shown) [(46)],T1/2 of fulgide or fulgimide compound,[1]; with chromene 5 (0.07 part),148 h
same,Color tone in T0,[3]; with chromene 5 (0.07 part),amber
same,Color tone in T1/2,[3]; with chromene 5 (0.07 part),amber
same,Initial color density,[5],0.71%
same,T1/2,[5],59 h
CCC(C(=O)C[N+](=O)[O-])N1C(=O)C2=C(C3CC3)c3cc(OC)cc(OC)c3C3(C4CC5CC(C4)CC3C5)C2C1=O (stereo not shown) [(45)],T1/2 of fulgide or fulgimide compound,[1]; with chromene 2 (0.03 part),160 h
same,Color tone in T0,[3]; with chromene 2 (0.03 part),gray
same,Color tone in T1/2,[3]; with chromene 2 (0.03 part),light gray
same,T1/2,[4],265 h
same,λmax,[5],579 nm
same,Initial color density,[5],0.54%
same,T1/2,[5],65 h
